Data from US8106111B2, “Antimicrobial effect of cycloaliphatic diol antimicrobial agents in coating compositions” (Eastman Chemical Company, priority 2009, dated 2012).

Legend:
[1] = Solubility in aqueous growth media; format: physicochemical
Experimental: Stock solutions were prepared for each isomer in the corresponding growth media at a concentration of 5% w/v (1,4-CHDM) or 2.25% w/v (1,1-CHDM). Serial dilutions were prepared with a dilution ratio of 1:1.3333 such that one log range was covered with nine dilutions.
Final results have been summarized below in Table 9.

[2] = test system: challenge organisms (E. coli, Aeromonas sp., SRB isolate, B. subtilis, P. vulgaris, A. niger, C. albicans); assay: Paint challenge test, summary over the challenge organisms; format: cell-based; settings: additive alone at 0.5-5%, all seven challenge organisms
Experimental: A test of the antimicrobial efficacy of 1,4-CHDM was performed in a paint. Test procedures were generally performed according to those of ASTM D2574-06: Standard Test Method for Resistance of Emulsion Paints in the Container to Attack by Microorganisms.
The paint used for testing was a commercial water-based, interior latex flat wall paint purchased from Wal-Mart. The trade name for the paint was Quik Hide. The color was Off White 26905. A five gallon (18.9 L) container was purchased. The VOC (volatile organic compound) content was listed as <100 g/L (0.8 lbs/gal).
Aliquots of uninoculated paint were distributed in sterile plastic tubes. The volume of paint added was adjusted such that the volume of additives plus the volume of paint would equal 25 mL. […] The percentages shown in Table 2 are weight percentages.
(§1) The concentration of the additives in the paint was adjusted to allow for a final volume of 28 mL per tube after addition of inoculum. All tubes were mixed for 10 minutes on a mechanical shaker set to 75 shakes per minute, and then left stationary at ambient temperature for a minimum of 48 hours.
The bacteria (first five in list), yeast (C. albicans) and fungi (A. niger) in Table 3 were used as challenge organisms for testing the antimicrobial efficacy of the additives contained in the test paint samples. Each organism was isolated from previous naturally contaminated samples of paint, latex, or adhesive. The concentration of each organism (colony-forming unit/gram (cfu/g)) in the test paint samples added as inoculum is also given in Table 3.
(§2) Bacterial cultures were grown at 35° C.±2° C. for a minimum of 96 hours in liquid media. SRB was grown in a thioglycolate broth. All other bacteria and C. albicans were grown in a Trypticase Soy broth with 1% dextrose. C. albicans cultures were grown at 22° C.±2° C. for a minimum of 96 hours. A. niger was grown on the Sabouraud Dextrose Agar (SDA) and in the Trypticase Soy broth with 1% dextrose at 22° C. for 7 to 14 days or until full sporulation (in the case of the agar culture) was achieved. Spores from the plate culture of A. niger were dislodged by rubbing the growth gently with a sterile inoculating loop or removing it with a sterile glass impinger. The spores were added into the broth culture, and then the mixture was filtered through sterile nonabsorbent cotton and adjusted to a spore level of 1.0×10^8 using a hemocytometer.
Challenge organisms were initially acclimated to the paint without additives by adding 10% by volume of individual broth culture to the paint to yield final concentrations of 10^6-10^7 cfu/mL for each bacterial culture to produce paint stock cultures. The A. niger and C. albicans cultures (or suspension) were first poured through nonabsorbent sterile gauze to remove aggregates, then centrifuged. […]

[3] = test system: challenge organisms (SRB isolate, B. subtilis, A. niger, C. albicans, P. aeruginosa/C. albicans); assay: Latex dispersion challenge test, summary over the challenge organisms; format: cell-based; settings: acrylic latex dispersion, additive alone; challenge organisms other than SRB
Experimental: A test of the antimicrobial efficacy of 1,4-CHDM was performed in a latex dispersion. Test procedures were generally conducted according to those of ASTM D2574-06: Standard Test Method for Resistance of Emulsion Latexes in the Container to Attack by Microorganisms.
An antimicrobial agent-free, acrylic latex dispersion with pH of 7.2, viscosity of 200 cps, and solids content of 49.8% was used as the substrate for microbial challenge testing.
Aliquots of the latex dispersion were distributed in sterile plastic tubes. The volume of latex added was adjusted such that the volume of additives plus the volume of latex would equal 25 mL to produce latex test samples.
as §1, with “additives” for “additives in the paint”, “the latex stock cultures discussed in Example 1.” for “inoculum.”
The bacteria (sulfate-reducing bacteria isolate, Bacillus subtilis, and Pseudomonas aeruginosa), yeast (Candida albicans), and fungi (Aspergillus niger) in Table 6 were used as challenge organisms for testing the antimicrobial efficacy of the test latex samples. Each organism was isolated from previous naturally contaminated samples of paint, latex, or adhesive.
as §2, with “Agar” for “Agar (SDA)”
Challenge organisms were initially acclimated to the latex without antimicrobial additives by adding 10% by volume of individual broth culture to latex to yield final concentrations of 10^6-10^7 cfu/mL for each bacterial culture to produce latex stock cultures. The A. niger and C. albicans cultures (or suspension) were first poured through nonabsorbent sterile gauze to remove aggregates then centrifuged. The solids were re-suspended to the desired concentration in latex by estimating the concentration using a hemocytometer. The P. aeruginosa and C. albicans isolates were originally found as a mixed culture in a contaminated product. A mixed latex stock culture containing P. aeruginosa and C. albicans was prepared by adding a portion of the contaminated product to the latex without antimicrobial additives. The latex stock culture samples were incubated at 35° C.±2° C. for bacteria and at 22° C.±2° C. for A. niger and C. albicans. To determine challenge organism concentration, samples of the latex stock cultures were dilution-plated, or for SRB, evaluated using the BACTI-BOTTLE method, as described below.
To the latex test samples, 3 mL of each latex stock culture (diluted as necessary) was added to produce a theoretical 1.0×10^5 to 1.0×10^6 cfu/mL total concentration to yield inoculated latex samples. […]

| SMILES | solubility [1] | killing of challenge organisms in paint [2] | efficacy against challenge organisms in latex [3] |
| --- | --- | --- | --- |
| OCC1(CO)CCCCC1 [1,1-CHDM, 1,1-cyclohexanedimethanol] | 2.25 % (w/v) |  |  |
| OCC1CCCC(CO)C1 (stereo not shown) [1,3-CHDM] |  | little benefit and no observable dose response |  |
| OCC1CCC(CO)CC1 (stereo not shown) [1,4-CHDM, 1,4-cyclohexanedimethanol] |  | significant or complete killing of each challenge organism | significant or complete killing of each challenge organism except SRB |
| O=c1[nH]sc2ccccc12 [BIT, benzisothiazolinone] |  |  | highly efficacious |
| CCCCNC(=O)OCC#CI [IPBC, 3-iodo-2-propanyl-n-butylcarbamate] |  |  | not found to be efficacious |
| Cn1sccc1=O [MIT, methylisothiazolinone] |  |  | highly efficacious |
| CC(O)CO (stereo not shown) [PG, propylene glycol] |  | little benefit and no observable dose response | some ability to inhibit and kill the challenge organisms |
| CC1(C)C(O)C(C)(C)C1O (stereo not shown) [TMCD, 2,2,4,4-tetramethyl-1,3-cyclobutanediol] |  | killed all challenge organisms at the highest level tested |  |
